# From patent US7807162B2, “Single domain VHH antibodies against von Willebrand factor” (Ablynx N.V., priority 2005, dated 2010)
# Where “and” joins values, the source holds several entries; their conditions need not be identical. Equal values may be shown once.
# Columns and labels:
# ADAMTS-13 [1] = assay: Cleavage of ULvWF platelet strings by ADAMTS-13 (perfusion assay); format: cell-based, human
# Protocol: ADAMTS-13 reduces the size of large and ultralarge VWF multimers to smaller forms by specifically cleaving the Y842/M843 peptide bond in the VWF A2 domain.
# In a first experiment, strings were generated by a 4 minute perfusion of washed platelets resuspended in buffer over histamine-stimulated endothelial cells. Subsequently, the non-adhered platelets were washed away by a 4 minute perfusion of buffer. After that, buffer was perfused for an other 4 minutes, followed by a 4 minute perfusion of pooled normal plasma containing ADAMTS-13. Detachment of the platelet strings was observed after perfusion of pooled normal plasma (FIG. 43). More than 95% of the strings were cleaved after the 4 minute perfusion.
# In a next experiment, strings were generated by a 4 minute perfusion of washed platelets resuspended in buffer over histamine-stimulated endothelial cells and the non-adhered platelets were washed away by a 4 minute perfusion of buffer as above.
# [2] = tested on: platelet adhesion to endothelial cell-derived ULvWF; assay: Platelet string formation on ULvWF of histamine-stimulated endothelial cells (perfusion); format: cell-based, human; settings: 0.2, 2 and 10 μg/ml; platelets in buffer or TTP plasma; 2.5 dyn/cm2, 4 minutes
# Protocol: Endothelial cells were obtained from human umbilical cord veins by the method of Maruyama (Z. Zellforsch. Mikrosk. A4nat. 60:69; 1963). Endothelial cells were activated with 100 μM histamine (Sigma-Aldrich, St Louis, Mo.) for 15 minutes at room temperature before the perfusion experiments.
# Blood was drawn from healthy volunteers who denied ingestion of aspirin or other nonsteroidal anti-inflammatory drugs (NSAIDs) for the preceding 10 days into one-tenth volume 3.4% sodium citrate. Platelet-rich plasma (PRP) was prepared from whole blood by centrifugation (10 minutes at 200 g at room temperature). […] The platelet pellet was resuspended in HEPES (N-2-hydroxyethylpiperazine-N′-2-ethanesulfonic acid)-Tyrode buffer (10 mM HEPES, 137 mM NaCl, 2.68 mM KCl, 0.42 mM NaH2PO4, 1.7 mM MgCl2, 5 mM D-glucose, pH 6.5). Prostacyclin (PGI2, 10 ng/mL) was added to prevent platelet activation during the subsequent washing step. Platelets were spun down and resuspended in a small volume of HEPES-Tyrode buffer. This platelet suspension was diluted in HEPES buffer at pH 7.4, or in TTP plasma. […]
# Endothelial cells were isolated from freshly obtained human umbilical cords by collagenase digestion of the interior of the umbilical vein. […] These ULvWF-adhered platelets appear as so-called ‘strings’, which are visible when the perfusion experiment is monitored by real-time video microscopy (FIG. 41). […]
# ADAMTS-13 [3] = assay: Cleavage of recombinant A1-A2-A3 vWF fragment by ADAMTS-13 (Western Blot); format: biochemical, human; settings: 10 μg/ml; normal pool plasma
# Protocol: In a second type of experiment, different reaction mixtures were prepared as summarized in table 60, however, without the addition of the A1A2A3 construct. The A1A2A3 construct is a recombinant fragment consisting out of the A1, A2 and A3 domain of vWF. Mixtures were pre-incubated for 5 minutes at 37° C. after which the A1A2A3 fragment is added and the mixture is incubated in a waterbath overnight at 37° C. […] The blot was blocked for 2 hours at room temperature with blockbuffer (1:1 Odyssey blockbuffer in 1×TBS pH=7.4) and incubated with Rabbit polyclonal anti-vWF (DAKO). Alexa Fluor 680 goat anti-rabbit was used for detection. Scanning was done on the ODYSSEY to detect the degradation products.
# In a second assay, a recombinant fragment containing the A1-A2-A3 domain of vWF was mixed with normal pool plasma (NPP) containing ADAMTS-13, resulting in proteolytic cleavage of the fragment which was observed by a Western Blot analysis.
# [4] = tested on: ristocetin-induced platelet aggregation; assay: Ristocetin-induced platelet aggregation (RIPA) ex vivo in blood of treated baboons
# Protocol: Platelet aggregations were performed on a Chronolog whole blood and optical Aggregometer (Model 560CA, Chronolog, USA). PRP was prepared (collected on 0.38 mol/L citrate), by centrifuging the whole blood at 1200 rpm for 5 minutes. The upper fraction containing the PRP was carefully removed. The lower fraction was further centrifuged at 3000 rpm for 10 minutes to prepare platelet poor plasma (PPP). Platelets were counted in PRP and diluted in PPP to a final concentration of 200.000 platelets per microliter. 3 mg/ml ristocetin (DAKO) was added and aggregation was measured.
# The GPIb-IX-V dependent platelet aggregation through vWF is measured using ristocetin as a modulator. The % aggregation is measured at each time point and at each dose.
# [5] = tested on: cyclic flow reductions (CFRs) in injured, stenosed femoral artery; assay: Folts thrombosis model in baboons: length/inhibition of cyclic flow reductions (CFRs); format: in vivo, baboon (Papio ursinus); settings: for Length of CFRs: individual baboons 16-24; for effective dose: Folts model
# [6] = number of experiments with inhibition / total number of independent repeats
substance,measurement,setting,value
"ALX-0081: ALX-0081 (SEQ ID NO:98), Nanobody; humanised bivalent nanobody with the 3a linker",effect on the cleavage of ULvWF strings by ADAMTS-13,ADAMTS-13 [1]; ALX-0081 10 μg/ml,does not have an effect
same,strings cleaved after the 4 minute perfusion of pooled normal plasma,ADAMTS-13 [1]; ALX-0081 10 μg/ml (10-fold molar excess over vWF),95%
same,string formation of platelets on ULvWF,[2],complete inhibition of string formation
same,effect on the cleavage of the A1-A2-A3 vWF fragment by ADAMTS-13,ADAMTS-13 [3],no effect
same,relation between RIPA and the length of the CFRs,[4]; 3 mg/ml ristocetin,inverse relation
same,dose for full inhibition in RIPA versus full inhibition of CFRs,"[4]; baboons 16, 18, 19 and 23",full inhibition in the RIPA test is obtained at lower doses than full inhibition of CFRs
same,Length of CFRs,"[5]; ALX-0081-treated, after Epinephrin",>1200 s (2×) and >900 s (7×)
same,Length of CFRs,[5]; ALX-0081 final dose 3 μg/kg,295 s and 193 s and 144 s and 133 s and 183 s and 312 s and 112 s
same,Length of CFRs,[5]; ALX-0081 final dose 13 μg/kg,380 s and 913 s and >1800 s (2×) and 298 s and 237 s and 620 s and 525 s and 213 s
same,Length of CFRs,[5]; ALX-0081 final dose 43 μg/kg,>1800 s
same,Length of CFRs,[5]; ALX-0081 final dose 133 μg/kg,>1800 s
same,effective dose,[5],30 µg/kg
same,effective dose,"[5]; inhibition of CFRs, final dose, ALX-0081: + […] dose/kg/hour",13-43 μg/kg +
same,final dose at which full inhibition of CFRs was obtained,[5]; all baboons (nine),0.043 mg/kg
same,dose at which full inhibition of CFRs was obtained,"[5]; all baboons (nine), bolus followed by 45 μg/kg/hour infusion",0.03 mg/kg
same,dose at which full inhibition of CFRs was already obtained,"[5]; baboons 17 and 22, bolus followed by 15 μg/kg/hour infusion",0.01 mg/kg
same,CFRs upon a new injury,[5]; new injury applied at full inhibition of CFRs,Inhibition was retained
same,Inhibition of CFRs,[5]; [6],9/9
same,Inhibition of CFRs after administration of Epinephrin,[5]; [6],9/9
same,Inhibition of CFRs after new injury,[5]; [6],9/9
